The text below walks through data of paper PMC4122966, “Novel VCP modulators mitigate major pathologies of rd10, a mouse model of retinitis pigmentosa” (Scientific Reports, 2014).

Data set [1] concerns whole cell soluble lysate of neuronally differentiated PC12 cells. As to the kind of experiment: total ATPase activity in clarified whole cell lysates. Format: biochemical. The procedure: Figure 3 Effects of KUSs on ATPase activities, ATP levels, and acetyl-CoA levels. (a) Inhibition of ATPase activity in clarified whole cell lysates by KUS121, KUS187, and KUS94, but not KUS11. Total ATPase activities in clarified whole cell lysates from differentiated PC12 cells were measured in the absence and presence of KUSs. Relative ATPase activities are shown with values in the absence of KUS (D: DMSO) set at 100%. (b) HeLa cells were cultured in medium with low glucose (0.25 g/l) for 20 hours, with or without KUSs, and ATP levels were measured with luciferase assays. (c) HeLa cells were cultured in medium with low glucose (0.25 g/l) for 20 hours, with or without KUSs, and acetyl-CoA levels were measured. * P < 0.05, ** P < 0.01, *** P < 0.001 vs. DMSO control (Dunnett's test, n = 3).
(§1) We measured ATPase activities by modifying the molybdate assay, which was as described previously. In the assay, 1 μg of whole cell soluble lysate of neuronally differentiated PC12 cells, or 500 ng recombinant VCP protein, was incubated in 20 μl of the ATPase assay buffer (20 mM HEPES (pH 7.4), 50 mM KCl, 5 mM MgCl2) with 100 μM [γ-^32P]ATP (18.5 GBq/mmol) (PerkinElmer) at 37°C for 20 min. After incubation, the reaction was quenched by addition of 200 μl of 8% ice-cold trichloroacetic acid solution with 1 mM K2HPO4, and then 50 μl of solution A (3.75% ammonium molybdate, 0.02 M silicotungstic acid in 3 N H2SO4) and 300 μl of n-butyl acetate were added to the reaction. The samples were mixed well and centrifuged at 12,000 × g for 1 min. Then, 200 μl aliquots from the upper organic phases were taken and their radioactivity was determined with a liquid scintillation counter for β-radiation, which determined the amounts of ^32P released.

The next data set addresses recombinant VCP (Homo sapiens, UniProt P55072). As to the kind of experiment: ATPase activity of recombinant VCP in vitro (modified molybdate assay, [γ-32P]ATP). It is filed as biochemical. The procedure: as §1
Data set [2] has as its system HeLa cells. In words: relative ATP amounts per cell in tunicamycin-treated cells. Format: cell-based. Particulars: Tm 0.5 μg/ml, 24 hours, KUSs 50 μM. The procedure: (§2) Figure 4 KUSs and ATP each prevented a decrease of ATP levels and ameliorated ER stress in tunicamycin-treated cells. (a) Immunocytochemical analyses of HeLa cells by an anti-laminin γ1 antibody. HeLa cells were treated with 0.5 μg/ml of tunicamycin (Tm) for 5 hours in the presence of KUSs (50 μM), ATP (0.1, 0.3, and 1 mM), methylpyruvate (MePyr) (3 and 10 mM), or vehicle alone (DMSO). Then, cells were fixed and subjected to immunocytochemical analyses. Normally growing HeLa cells were also analyzed (Control). Scale bar, 10 μm. (b) Measurements of the relative amounts of ATP per cell. HeLa cells were treated with tunicamycin (Tm, 0.5 μg/ml) for 24 hours in the presence of KUSs (50 μM) or ATP (0.1 and 1 mM), or vehicle alone (DMSO), and were harvested. Then, ATP amounts from 1.5 × 10^5 cells were measured. * P < 0.05, ** P < 0.01. Error bars indicate SD. (c) Western blot analyses on CHOP. HeLa cells were treated with 0.5 μg/ml of tunicamycin for 5 hours in the presence of KUSs (50 μM), ATP (0.1, 0.3, and 1 mM), methylpyruvate (MePyr) (3 and 10 mM), or vehicle alone (-). Then, cells were harvested and subjected to western blot analyses. Actin served as a loading control. Complete scans of the different blots are presented in Supplementary Fig. 9.

Data set [3] relates to essentially all tested cultured cells. As to the kind of experiment: cellular toxicity on cultured cells. It is filed as cell-based. To be noted: up to 50 μM.
Data set [4] has as its system HeLa cells. As to the kind of experiment: cell death-inducing activity. It is filed as cell-based. To be noted: 50 μM, 24 hours. The text has this:
(§3) Figure 1 Structures and characterization of KUSs, novel VCP modulators. (a) Structures and IC50 values of KUS11, KUS31, KUS69, KUS94, KUS121, and KUS187. […] (b) ATPase activity assays of recombinant human […], comparing KUSs and DBeQ. (c) Immunoblot analysis of ubiquitinated proteins, an ER stress marker (CHOP), and an autophagy indicator (LC3), comparing KUSs and DBeQ. As a control, MG132, a proteasome inhibitor, was used for the analysis. Actin served as a loading control. Complete scans of the different blots are presented in Supplementary Fig. 7. (d) Comparison of KUSs and DBeQ for cell death-inducing activities. HeLa cells were treated with 50 μM DBeQ or KUSs for 24 hours. […]

The subject of a further data set is cellular VCP functions. In words: immunoblot of ubiquitinated proteins, CHOP (ER stress) and LC3 (autophagy) in cultured cells. Format: cell-based.
Source text: as §3
A general note: A western blot detects proteins with antibodies after separation by electrophoresis.

The subject of data set [5] is HeLa cells. In words: immunocytochemistry of laminin γ1 aggregation in tunicamycin-treated cells. Format: cell-based. To be noted: HeLa, Tm 0.5 μg/ml, 5 hours. The procedure: as §2
Another data set concerns rd10 mice. As to the kind of experiment: rd10 mouse model of retinitis pigmentosa (SD-OCT, electroretinogram, histology, electron microscopy, western blot). To be noted: 21-day-old. Format: in vivo. How it is done: Starting 7 days after birth, KUS121 or KUS187 was administered daily (50 mg/kg) by intraperitoneal injection. […] To test the visual function of the mice, dark-adapted electroretinograms were recorded. The amplitude of the a-wave, which represents visual function of photoreceptors, was smaller in the control mice than in the KUS-treated mice (Supplementary Fig. 5b and c). The peak latency of the a-wave, which negatively correlates with visual function of photoreceptors, was delayed in the control mice as compared with the KUS-treated mice (Supplementary Fig. 5d). At age 25 days, the thinning of the outer nuclear layer (ONL) was clearly observed in the control mice (Fig. 5a). The outer nuclear layer and the junction line between the inner segment and outer segment (arrow heads in Fig. 5a), which is generally considered to be positively associated with visual function, were clearly detected in the KUS-treated but not in control mice. […] At age 29 days, the photoreceptor layer was barely detected in SD-OCT images, and electroretinogram records were almost flat in control mice. […]
Spectral-domain optical coherence tomography (SD-OCT) examinations using Multiline OCT (Heidelberg Engineering, Heidelberg, Germany) were performed[33] in rd10 mice at ages of 21, 25, 29, and 33days. Total retinal thickness (from inner limiting membrane to Bruch membrane) in rd10 mice was measured using volume scan images[33] within a circle 0.366 mm in diameter, the center of which was adjusted to the center of the optic nerve head. […]
Electroretinogram recording was performed to assess the visual function of rd10 mice at ages of 21, 25, 29, and 33 days. […] Electroretinograms were recorded using a gold loop corneal electrode with a light-emitting diode (Mayo Corp., Inazawa, Japan). […] The electroretinogram response signals were amplified, digitized at 10 kHz with a band-pass filter of 0.3 to 500 Hz, and analyzed (PowerLab 2/25; AD instruments, New South Wales, Australia). […]

Data set [6] concerns tunicamycin-treated HeLa cells. As to the kind of experiment: western blot of ER stress markers and phospho-Akt in tunicamycin-treated cells. To be noted: Tm 0.5 μg/ml, 5 hours, 3 to 10 mM methylpyruvate. It is filed as cell-based. The procedure: Figure 2 Prevention of cell death and ER stress by KUSs. (a) Photographs of HeLa cells, cultured with DMSO (DMSO) or KUSs (KUS94, KUS121, and KUS187, 20 μM each) for 41 hours in low glucose (0.2 g/l) medium. Scale bar, 100 μm. (b–e) WST (water-soluble tetrazolium salts) values reflecting relative live cell numbers are shown, as optical density (OD) at 450 nm. Error bars indicate SD. (b) WST values of HeLa cells, cultured in low glucose (0.2 g/l) with DMSO (control) or KUSs (50 μM for KUS121; 20 μM for KUS69, KUS94, and KUS187, n = 3) for 41 hours. (c) Cell viability, indicated by WST values of HeLa cells, cultured with tunicamycin (Tm) (0.2 μg/ml) for 41 hours with KUSs (20 μM each, n = 3). (d) WST values of HEK293 cells, cultured under serum-free conditions for 65 hours with DMSO (control) or KUSs (20 μM each, n = 3). *** P < 0.001, vs. DMSO control (Dunnett's test). (e) WST values of HeLa cells, cultured in low glucose (0.2 g/l) medium with different concentrations of KUS121 (5, 10, 20, and 50 μM, n = 3) for 41 hours. ** P = 0.008, *** P < 0.001, vs. DMSO control (Dunnett's test). […]
Figure 4 KUSs and ATP each prevented a decrease of ATP levels and ameliorated ER stress in tunicamycin-treated cells. […] Normally growing HeLa cells were also analyzed (Control). […] Then, ATP amounts from 1.5 × 10^5 cells were measured. * P < 0.05, ** P < 0.01. […]

Where “and” joins values, the source holds several entries; their conditions need not be identical. Equal entries are not always repeated.

As usually defined, the IC50 is the point on the concentration scale where inhibition reaches its midpoint.

Sequence of recombinant VCP (P55072 whole entry, species assumed): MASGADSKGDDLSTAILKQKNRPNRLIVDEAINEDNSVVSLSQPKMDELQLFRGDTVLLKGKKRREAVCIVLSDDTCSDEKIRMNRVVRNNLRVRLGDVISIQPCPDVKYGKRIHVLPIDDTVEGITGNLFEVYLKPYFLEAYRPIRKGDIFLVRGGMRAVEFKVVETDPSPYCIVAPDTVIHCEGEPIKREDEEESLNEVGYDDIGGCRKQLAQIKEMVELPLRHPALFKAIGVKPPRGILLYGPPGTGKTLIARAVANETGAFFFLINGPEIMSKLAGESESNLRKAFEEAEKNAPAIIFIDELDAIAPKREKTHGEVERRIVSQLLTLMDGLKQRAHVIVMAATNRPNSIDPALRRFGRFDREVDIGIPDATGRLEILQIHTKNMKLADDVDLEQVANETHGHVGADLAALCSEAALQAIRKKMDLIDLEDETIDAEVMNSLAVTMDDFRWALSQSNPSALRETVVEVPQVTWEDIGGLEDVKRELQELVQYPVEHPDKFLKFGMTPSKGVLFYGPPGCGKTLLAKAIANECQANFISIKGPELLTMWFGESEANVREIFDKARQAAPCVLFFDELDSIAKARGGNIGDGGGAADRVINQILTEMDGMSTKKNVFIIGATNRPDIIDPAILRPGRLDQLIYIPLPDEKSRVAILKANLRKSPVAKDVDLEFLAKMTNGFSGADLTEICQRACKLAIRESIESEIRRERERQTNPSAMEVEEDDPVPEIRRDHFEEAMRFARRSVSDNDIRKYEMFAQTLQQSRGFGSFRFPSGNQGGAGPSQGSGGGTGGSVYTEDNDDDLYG

With `Nc1ccc2cc(S(=O)(=O)O)ccc2c1/N=N/c1ccccc1` [KUS11], in data set [1], the “inhibition of total ATPase activity in clarified lysates” value is on record as “did not show any significant inhibition”. For the same compound, the IC50 at recombinant VCP was greater than 100000 nM. Also, in the data set on HeLa cells [2], the “decrease of ATP levels in tunicamycin-treated cells” value is listed as “unable to prevent the tunicamycin-elicited ATP decrease”.
As for `Nc1c(/N=N/c2ccc(-c3ccccc3)nc2)cc(S(=O)(=O)O)c2ccccc12` [KUS31], in data set [3], the apparent cellular toxicity entry is “did not manifest any apparent cellular toxicity”. The “induction of cell death” value in the data set with HeLa cells [4] is on record as “did not induce any of these phenotypes”. For the same compound, the “induction of accumulation of ubiquitinated proteins, ER stress (CHOP), autophagy (LC3)” value (“induction of accumulation … (LC3)” for short) in the data set with cellular VCP functions was “did not induce any of these phenotypes”. Besides, the IC50 at recombinant VCP was determined as 229 nM.
With `Nc1c(/N=N/c2ccc(-c3ccccc3-c3ccccc3)nc2)cc(S(=O)(=O)O)c2ccccc12` [KUS69], in [3], the apparent cellular toxicity result is “did not manifest any apparent cellular toxicity”. In the data set on HeLa cells [4], the “induction of cell death” value was “did not induce any of these phenotypes”. The “induction of accumulation … (LC3)” value with cellular VCP functions was “did not induce any of these phenotypes”. For the same compound, on recombinant VCP, the IC50 amounted to 116 nM. In addition, the “aggregation of laminin γ1” value with HeLa cells [5] (50 μM KUS) is “clearly prevented the aggregation of laminin γ1”.
As to `Nc1c(/N=N/c2ccc(-c3cccc4c3sc3ccccc34)nc2)cc(S(=O)(=O)O)c2ccccc12` [KUS94], the apparent cellular toxicity entry in [3] was “did not manifest any apparent cellular toxicity”. Further, the “induction of cell death” value in the data set with HeLa cells [4] is “did not induce any of these phenotypes”. The “lowering of total ATPase activity” value in data set [1] (1 μM compound) was “approximately 20%”. Further, the “induction of accumulation … (LC3)” value in the data set with cellular VCP functions is listed as “did not induce any of these phenotypes”. Moreover, at recombinant VCP, the IC50 was 1000 nM. The “aggregation of laminin γ1” value in the data set with HeLa cells [5] (50 μM KUS) is reported as “clearly prevented the aggregation of laminin γ1”.
`CCCCOc1c(C=O)cc(C)cc1-c1ccc(/N=N/c2cc(S(=O)(=O)O)c3ccccc3c2N)cn1` [KUS187]: in data set [3], the apparent cellular toxicity result is recorded as “did not manifest any apparent cellular toxicity”. In addition, the “induction of cell death” value with HeLa cells [4] is “did not induce any of these phenotypes”. Further, the entries for the “lowering of total ATPase activity” value in [1] (100 nM compound) and in [1] (1 μM compound) were “approximately 20%” and roughly 40%, respectively. Further, in the data set on rd10 mice, the “outer segment morphology by electron microscopy” value is listed as “well preserved”. Further, the “mean amplitude of the a-wave, dark-adapted electroretinogram” value with rd10 mice (50 mg/kg daily i.p. from day 7, vs control) is recorded as “larger than that in control rd10 mice”. Moreover, the “induction of accumulation … (LC3)” value in the data set with cellular VCP functions was “did not induce any of these phenotypes”. Also, on recombinant VCP, the IC50 is 200 to 300 nM and 186 nM. Also, in the data set with HeLa cells [5] (50 μM KUS), the “aggregation of laminin γ1” value is given as “clearly prevented the aggregation of laminin γ1”.
Take `COC(=O)C(C)=O` [methylpyruvate]: the “induction of ER stress (CHOP induction)” value in data set [6] is reported as “dampen the induction of ER stress”. Besides, the “aggregation of laminin γ1” value in the data set with HeLa cells [5] (3 to 10 mM methylpyruvate) is reported as “ineffective in preventing the aggregation of laminin γ1”.
